Experimental data from the NIST ThermoML archive (doi:10.1021/je900691n).

Experiment: xn = mol fraction of the nth substance listed
Conditions: Liquid, Pycnometric method

COC(=O)OC [dimethyl carbonate] + O=C=O
mass density [kg/m3]
Conditions | 332.85 K | 337.45 K
8220 kPa, x1 = 0.0242 | – | 212
8340 kPa, x1 = 0.0242 | – | 217
8440 kPa, x1 = 0.0242 | – | 222
8530 kPa, x1 = 0.0242 | – | 226
8640 kPa, x1 = 0.0242 | – | 231
8730 kPa, x1 = 0.0242 | – | 236
8820 kPa, x1 = 0.0242 | – | 242
8920 kPa, x1 = 0.0242 | – | 247
9030 kPa, x1 = 0.0242 | – | 253
9130 kPa, x1 = 0.0242 | – | 259
9240 kPa, x1 = 0.0242 | – | 266
9350 kPa, x1 = 0.0242 | – | 272
9460 kPa, x1 = 0.0242 | – | 279
9570 kPa, x1 = 0.0242 | – | 287
9690 kPa, x1 = 0.0242 | – | 295
9760 kPa, x1 = 0.1484 | – | 790
9810 kPa, x1 = 0.0242 | – | 304
9820 kPa, x1 = 0.118 | 773 | –
9910 kPa, x1 = 0.0242 | 353 | –
9920 kPa, x1 = 0.1484 | 826 | –
9930 kPa, x1 = 0.0242 | – | 311
9960 kPa, x1 = 0.086 | 682 | –
10010 kPa, x1 = 0.0242 | 362 | –
10030 kPa, x1 = 0.086 | 686 | –
10040 kPa, x1 = 0.118 | 780 | –
10060 kPa, x1 = 0.1484 | – | 795
10090 kPa, x1 = 0.0481 | 484 | –
10110 kPa, x1 = 0.0242 | 371 | –
10180 kPa, x1 = 0.118 | – | 737
10200 kPa, x1 = 0.0242 | 381 | –
10200 kPa, x1 = 0.086 | 695 | –
10250 kPa, x1 = 0.0481 | 506 | –
10290 kPa, x1 = 0.1484 | 832 | –
10300 kPa, x1 = 0.0242 | 391 | –
10350 kPa, x1 = 0.0481 | 517 | –
10350 kPa, x1 = 0.118 | 788 | 743
10380 kPa, x1 = 0.0242 | 399 | –
10380 kPa, x1 = 0.086 | 704 | –
10420 kPa, x1 = 0.0481 | 525 | –
10450 kPa, x1 = 0.0481 | – | 450
10450 kPa, x1 = 0.086 | – | 631
10480 kPa, x1 = 0.086 | – | 634
10490 kPa, x1 = 0.0242 | 410 | –
10520 kPa, x1 = 0.0481 | 538 | –
10530 kPa, x1 = 0.086 | 711 | –
10530 kPa, x1 = 0.1484 | – | 804
10550 kPa, x1 = 0.086 | – | 640
10580 kPa, x1 = 0.0242 | 417 | –
10620 kPa, x1 = 0.118 | – | 751
10630 kPa, x1 = 0.086 | – | 644
10640 kPa, x1 = 0.0481 | 550 | –
10670 kPa, x1 = 0.0481 | – | 470
10720 kPa, x1 = 0.1484 | 839 | –
10740 kPa, x1 = 0.0481 | 560 | –
10740 kPa, x1 = 0.118 | 796 | –
10780 kPa, x1 = 0.0481 | – | 481
10800 kPa, x1 = 0.086 | – | 654
10820 kPa, x1 = 0.1484 | – | 809
10860 kPa, x1 = 0.086 | 724 | –
10890 kPa, x1 = 0.0481 | 574 | 492
10940 kPa, x1 = 0.118 | – | 760
11010 kPa, x1 = 0.0481 | – | 504
11060 kPa, x1 = 0.0481 | 588 | –
11080 kPa, x1 = 0.086 | – | 669
11160 kPa, x1 = 0.0481 | – | 517
11200 kPa, x1 = 0.118 | 805 | –
11230 kPa, x1 = 0.1484 | – | 816
11250 kPa, x1 = 0.1484 | 846 | –
11260 kPa, x1 = 0.0481 | 603 | –
11270 kPa, x1 = 0.086 | 738 | –
11290 kPa, x1 = 0.118 | – | 769
11310 kPa, x1 = 0.0481 | – | 530
11380 kPa, x1 = 0.086 | – | 684
11480 kPa, x1 = 0.0481 | – | 543
11500 kPa, x1 = 0.0481 | 619 | –
11650 kPa, x1 = 0.0481 | – | 558
11700 kPa, x1 = 0.118 | – | 779
11720 kPa, x1 = 0.1484 | – | 823
11730 kPa, x1 = 0.1484 | 851 | –
11740 kPa, x1 = 0.118 | 815 | –
11750 kPa, x1 = 0.086 | 751 | –
11760 kPa, x1 = 0.0481 | 636 | –
11780 kPa, x1 = 0.086 | – | 700
11850 kPa, x1 = 0.0481 | – | 573
11990 kPa, x1 = 0.0481 | 650 | –
12100 kPa, x1 = 0.0481 | – | 589
12160 kPa, x1 = 0.118 | 822 | –
12190 kPa, x1 = 0.118 | – | 789
12240 kPa, x1 = 0.1484 | – | 830
12260 kPa, x1 = 0.1484 | 858 | –
12270 kPa, x1 = 0.086 | 765 | 716
12280 kPa, x1 = 0.0481 | 663 | –
12360 kPa, x1 = 0.0481 | – | 607
12630 kPa, x1 = 0.0481 | 678 | –
12660 kPa, x1 = 0.118 | – | 798
12700 kPa, x1 = 0.118 | 830 | –
12740 kPa, x1 = 0.1484 | – | 838
12750 kPa, x1 = 0.086 | 775 | –
12750 kPa, x1 = 0.1484 | 863 | –
12800 kPa, x1 = 0.086 | – | 732
13170 kPa, x1 = 0.086 | – | 742
13190 kPa, x1 = 0.118 | 837 | –
13220 kPa, x1 = 0.118 | – | 807
13230 kPa, x1 = 0.086 | 784 | –
13240 kPa, x1 = 0.1484 | – | 843
13270 kPa, x1 = 0.1484 | 869 | –
13640 kPa, x1 = 0.118 | – | 814
13700 kPa, x1 = 0.118 | 843 | –
13730 kPa, x1 = 0.086 | – | 755
13730 kPa, x1 = 0.1484 | – | 849
13760 kPa, x1 = 0.086 | 794 | –
13800 kPa, x1 = 0.1484 | 874 | –
14170 kPa, x1 = 0.118 | – | 821
14220 kPa, x1 = 0.086 | – | 766
14230 kPa, x1 = 0.118 | 850 | –
14270 kPa, x1 = 0.1484 | – | 855
14290 kPa, x1 = 0.086 | 803 | –
14520 kPa, x1 = 0.1484 | 881 | –
14710 kPa, x1 = 0.086 | – | 775
14720 kPa, x1 = 0.086 | 810 | –
14730 kPa, x1 = 0.118 | – | 829
14760 kPa, x1 = 0.118 | 856 | –
14780 kPa, x1 = 0.1484 | – | 861
15020 kPa, x1 = 0.1484 | 885 | –
15150 kPa, x1 = 0.086 | – | 783
15280 kPa, x1 = 0.118 | – | 836
15290 kPa, x1 = 0.118 | 861 | –
15330 kPa, x1 = 0.086 | 819 | –
15350 kPa, x1 = 0.1484 | – | 866
15460 kPa, x1 = 0.1484 | 889 | –
15740 kPa, x1 = 0.086 | – | 792
15740 kPa, x1 = 0.118 | 866 | –
15760 kPa, x1 = 0.086 | 825 | –
15770 kPa, x1 = 0.118 | – | 842
15800 kPa, x1 = 0.1484 | – | 870
15940 kPa, x1 = 0.1484 | 893 | –
16200 kPa, x1 = 0.086 | 831 | –
16250 kPa, x1 = 0.086 | – | 801
16370 kPa, x1 = 0.118 | 872 | –
16400 kPa, x1 = 0.118 | – | 849
16600 kPa, x1 = 0.1484 | – | 881
16670 kPa, x1 = 0.1484 | 899 | –
